In patent publication US9353072B2, “Antimicrobial substituted thiazoles and methods of use” (Purdue Research Foundation, priority 2012, dated 2016):
In brackets after ≈: the same amount, converted by molar mass.

Legend:
[1] = test system: murine macrophage cells (J774.A1); experiment: In vitro cytotoxicity analysis, MTS assay; format: cell-based; details: 16 μM, 24 hours
Protocol: In vitro cytotoxicity analysis: Compounds were assayed at concentrations of 2 μM, 4 μM, 8 μM, and 16 μM against a macrophage cell line (J774.A1) to determine the potential toxic effect in vitro. Murine macrophage cells were cultured in Dulbeco's Modified Eagle Medium (Sigma-Aldrich, St. Louis, Mo., USA) with 10% Fetal Bovine Serum (USA Scientific, Inc.) at 37° C. with 5% CO2. Controls received DMSO alone at a concentration equal to that in drug-treated cell samples. The cells were incubated with the compounds in a 96-Well Plate at 37° C. and 5.0% CO2 for 24 hours prior to addition of the assay reagent MTS 3-(4,5-dimethylthiazol-2-yl)-5-(3-carboxymethoxyphenyl)-2-(4-sulfophenyl)-2H-tetrazolium) (Promega, Madison, Wis., USA). The reagent measures the succinate dehydrogenase mitochondrial activity as an indicator of cell viability and proliferation. Corrected absorbance readings (actual absorbance readings for each treatment subtracted from background absorbance) were taken using a kinetic ELISA microplate reader (Molecular Devices, Sunnyvale, Calif., USA). The quantity of viable cells after treatment with each compound was expressed as a percentage of the control, DMSO.

[2] = test system: 18 different strains of MRSA and VRSA; experiment: MIC broth microdilution, panel of 18 MRSA and VRSA strains (summary statements); format: cell-based, Staphylococcus aureus; details: relative to lead compound 1a; number of strains as stated in the sentence
Protocol: (§1) Determination of minimum inhibitory concentration (MIC). The MICs of the lead thiazole compound (compound 1a) and nine derivatives tested against all 18 MRSA strains were determined, in triplicate samples, using the broth microdilution method in accordance with the recommendations contained in the CLSI guidelines.

[3] = test system: MRSA USA1100; experiment: MIC broth microdilution, MRSA USA1100; format: cell-based; details: Staphylococcus aureus, Table 2, read-out: Minimum Inhibitory Concentration
Protocol: as §1

[4] = test system: MRSA NRS384 (USA300); experiment: MIC/MBC broth microdilution, NRS384 (USA300); format: cell-based; details: Staphylococcus aureus; Table 2; MRSA USA300; read-out: Minimum Inhibitory Concentration
Outline: (§2)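 MIC: CLSI broth microdilution; triplicate samples per strain.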

[5] = test system: NRS107; experiment: MIC/MBC broth microdilution, NRS107; format: cell-based; details: Staphylococcus aureus, Table 2, read-out: Minimum Inhibitory Concentration
Outline: as §2

[6] = test system: MRSA USA400 (NRS123); experiment: MIC/MBC broth microdilution, NRS123 (USA400); format: cell-based; details: Staphylococcus aureus; Table 2; MRSA USA400; read-out: Minimum Inhibitory Concentration
Outline: as §2

[7] = test system: MRSA (USA300); experiment: Time-kill assay; format: cell-based, Staphylococcus aureus; details: 3.0×MIC
Protocol: Time-kill assay. […] Viable CFU/mL was determined by serial dilution and plating on trypticase soy agar (TSA) (Becton, Dickinson and Company, Sparks, Md., USA) plates after 0, 2, 4, 6, 8, 10, and 12 hours of incubation at 37° C. to identify the time required to reduce the bacterial cell count by 3-log10.

[8] = test system: MRSA ATCC 700699 (NRS1, VISA); experiment: MIC/MBC broth microdilution, NRS1 (ATCC 700699); format: cell-based; details: Staphylococcus aureus; Table 2; MRSA ATCC 700699; read-out: Minimum Inhibitory Concentration
Outline: as §2

[9] = test system: MRSA USA200; experiment: MIC broth microdilution, MRSA USA200; format: cell-based; details: Staphylococcus aureus; Table 2; MRSA USA200; read-out: Minimum Inhibitory Concentration
Protocol: as §1

[10] = test system: MRSA USA500 (NRS385); experiment: MIC/MBC broth microdilution, NRS385 (USA500); format: cell-based; details: Staphylococcus aureus; Table 2; MRSA USA500; read-out: Minimum Inhibitory Concentration
Outline: as §2

[11] = test system: VISA LIM 3 (NRS37); experiment: MIC/MBC broth microdilution, NRS37 (VISA LIM 3); format: cell-based; details: Staphylococcus aureus; Table 2; VISA LIM 3; read-out: Minimum Inhibitory Concentration
Outline: as §2

[12] = test system: VRSA (VRS10); experiment: MIC/MBC broth microdilution, VRSA (VRS10); format: cell-based, Staphylococcus aureus; details: Staphylococcus aureus; Table 2; VRSA; read-out: Minimum Inhibitory Concentration
Protocol: as §1

[13] = test system: NRS194; experiment: MIC/MBC broth microdilution, NRS194; format: cell-based; details: Staphylococcus aureus, Table 2, read-out: Minimum Inhibitory Concentration
Outline: as §2

[14] = test system: NRS108; experiment: MIC broth microdilution, NRS108; format: cell-based; details: Staphylococcus aureus, Table 2, read-out: Minimum Inhibitory Concentration
Protocol: as §1

[15] = test system: MRSA USA100; experiment: MIC broth microdilution, MRSA USA100; format: cell-based; details: Staphylococcus aureus; Table 2; MRSA USA100; read-out: Minimum Inhibitory Concentration
Protocol: as §1

[16] = test system: MRSA USA700; experiment: MIC broth microdilution, MRSA USA700; format: cell-based; details: Staphylococcus aureus, Table 2, read-out: Minimum Inhibitory Concentration
Protocol: as §1

| improvement in the MIC value relative to the lead compound [2] | MIC [3] | MIC [4] | MIC [5] | MIC [6] | MIC [8] | MIC [9] | MIC [10] | MIC [11] | MIC [12] | MIC [13] | MIC [14] | MIC [15] | MIC [16] | Structure (SMILES) | toxicity toward murine macrophage cells [1] | bactericidal effect in time-kill assay ([7]; 12 hour incubation at 37° C.) | time to eliminate MRSA completely (reduce CFU to zero) ([7]; MRSA (USA300)) |
| --- | --- | --- | --- | --- | --- | --- | --- | --- | --- | --- | --- | --- | --- | --- | --- | --- | --- |
| two- to four-fold improvement | 0.7 µg/mL (≈ 1.97 µM) | 0.7 µg/mL (≈ 1.97 µM) | 0.7 µg/mL (≈ 1.97 µM) | 0.7 µg/mL (≈ 1.97 µM) | 0.7 µg/mL (≈ 1.97 µM) | 1.5 µg/mL (≈ 4.22 µM) | 0.7 µg/mL (≈ 1.97 µM) | 0.4 µg/mL (≈ 1.13 µM) | – | – | – | – | – | C/C(=N\NC(=N)N)c1sc(-c2ccc(C3CCCCC3)cc2)nc1C [Compound 8, 2-{1-[2-(4-Cyclohexylphenyl)-4-methylthiazol-5-yl]ethylidene}hydrazinecarboximid-amide] | none were observed to be toxic | bactericidal | six hours |
| two- to four-fold improvement | 0.6 µg/mL (≈ 1.72 µM) | 1.2 µg/mL (≈ 3.43 µM) | – | 0.6 µg/mL (≈ 1.72 µM) | 0.6 µg/mL (≈ 1.72 µM) | – | 1.2 µg/mL (≈ 3.43 µM) | – | 1.2 µg/mL (≈ 3.43 µM) | 1.2 µg/mL (≈ 3.43 µM) | 2.4 µg/mL (≈ 6.87 µM) | 2.4 µg/mL (≈ 6.87 µM) | 0.6 µg/mL (≈ 1.72 µM) | C/C(=N\NC(=N)N)c1sc(-c2ccc(-c3ccccc3)cc2)nc1C [Compound 12, 2-{1-[2-([1,1′-Biphenyl]-4-yl)-4-methylthiazol-5-yl]ethylidene}hydrazinecarboximid-amide] | none were observed to be toxic | – | – |
